# Assay results taken from ChEMBL document CHEMBL1123509, “In vitro inhibition of estrogen sulfoconjugation by some 2- and 4-substituted estra-1,3,5(10)-trien-17 beta-ols1a” (J Med Chem, 1986).
# Target: T1, Estrogen sulfotransferase (Sus scrofa, UniProt Q95MF8)
# T1 sequence (Q95MF8 whole entry): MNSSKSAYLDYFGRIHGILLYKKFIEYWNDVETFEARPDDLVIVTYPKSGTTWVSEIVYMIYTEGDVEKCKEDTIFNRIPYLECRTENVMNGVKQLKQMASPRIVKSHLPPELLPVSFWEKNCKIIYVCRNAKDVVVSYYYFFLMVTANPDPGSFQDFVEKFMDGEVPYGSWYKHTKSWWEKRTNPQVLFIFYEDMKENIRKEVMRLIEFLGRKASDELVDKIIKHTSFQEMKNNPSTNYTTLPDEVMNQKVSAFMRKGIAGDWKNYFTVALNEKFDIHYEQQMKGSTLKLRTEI
# Experiment: Compound was tested for inhibition of porcine endometrial estrogen sulfotransferase
# Settings: read-out: Ki app
row,SMILES,Ki
1,C[C@]12CC[C@@H]3c4cc([N+](=O)[O-])ccc4CC[C@H]3[C@@H]1CC[C@@H]2O,9.76 µM
2,C[C@]12CC[C@@H]3c4cccc([N+](=O)[O-])c4CC[C@H]3[C@@H]1CC[C@@H]2O,2.43 µM
3,C[C@]12CC[C@@H]3c4cc(F)ccc4CC[C@H]3[C@@H]1CCC2O (stereo not given in full),13.6 µM
4,C[C@]12CC[C@@H]3c4cccc(N)c4CC[C@H]3[C@@H]1CCC2=O,10.5 µM
5,C[C@]12CC[C@@H]3c4cc(N)ccc4CC[C@H]3[C@@H]1CCC2O (stereo not given in full),7.51 µM
6,C[C@]12CC[C@@H]3c4cccc(F)c4CC[C@H]3[C@@H]1CCC2=O,14.8 µM
7,C[C@]12CC[C@@H]3c4cccc(N)c4CC[C@H]3[C@@H]1CCC2O (stereo not given in full),11.9 µM
8,C[C@]12CC[C@@H]3c4ccccc4CC[C@H]3[C@@H]1CCC2=O,25.1 µM
9,C[C@]12CC[C@@H]3c4cccc(F)c4CC[C@H]3[C@@H]1CC[C@@H]2O,10.2 µM
10,C[C@]12CC[C@@H]3c4ccccc4CC[C@H]3[C@@H]1CC[C@@H]2O,16.3 µM
